From patent US11505548B2, “Heterocyclic compounds and their use for treatment of helminthic infections and diseases” (Celgene Corporation, priority 2019, dated 2022)

Test system: microfilariae of Dirofilaria immitis
Assay: Dirofilaria immitis, Microfilaria (DiMF) Assay
Format: cell-based
Settings: read-out: D. immitis activity level (IC50 or MED)
Method: Heartworm Screen Dirofilaria immitis (D. immitis)
Dirofilaria immitis, Microfilaria (DiMF) Assay.
Compounds were dissolved and serially diluted in DMSO. Aliquots were spotted to the empty wells of assay plates. Media and microfilariae of Dirofilaria immitis were added to each well to dilute the test compounds to the desired concentrations. Assay plates were incubated for approximately 72 hours, and the larvae in each well were observed microscopically for drug effect. Microfilariae in each well were assessed subjectively for survival or paralysis, and results were reported as Minimum Effective Dose (MED).
Active and selective (DiL4 vs. DiMF potency) example compounds were subsequently evaluated in heartworm positive dog studies to correlate the in vitro selectivity profile with in vivo effects on circulating microfilariae.

Cc1cc(C#N)cnc1Nc1nc(-c2ccc(OC(C)C)cn2)ns1 [Compound 231, 6-(3-(5-isoprop-oxypyridin-2-yl)-1,2,4-thiadiazol-5-ylamino)-5-methyl-nicotinonitrile] showed an IC50 of 200 to 500 nM.

Molecule CC(C)Oc1ccc(-c2nsc(Nc3ncc(C(=O)NC4CC(F)(F)C4)cc3C(C)C)n2)nc1 [Compound 195, N-(3,3-difluoro-cyclobutyl)-6-(3-(5-isoprop-oxypyridin-2-yl)-1,2,4-thiadiazol-5-ylamino)-5-isopropyl-nicotinamide] has an IC50 of 500 to 5000 nM.

CC(C)c1cccnc1Nc1nc(-c2ccc(OC(F)F)cn2)ns1 [Compound 127, 3-(5-(difluoro-methoxy)pyridin-2-yl)-N-(3-isopropyl-pyridin-2-yl)-1,2,4-thiadiazol-5-amine] showed an IC50 of 500 to 5000 nM.

CC(C)Oc1ccc(-c2nsc(Nc3ncccc3C(C)C)n2)nc1 [Compound 115, 3-(5-isopropoxy-pyridin-2-yl)-N-(3-isopropyl-pyridin-2-yl)-1,2,4-thiadiazol-5-amine] gave an IC50 of under 200 nM.

CC(C)Oc1ccc(-c2nsc(Nc3ncccc3C(F)(F)F)n2)nc1 [Compound 54, 3-(5-isopropoxy-pyridin-2-yl)-N-(3-(trifluoromethyl)pyridin-2-yl)-1,2,4-thiadiazol-5-amine] gave an IC50 of under 200 nM.

Work on CC(=O)N1CCc2cc(-c3nsc(Nc4ncccc4C(F)(F)F)n3)ncc21 [Compound 267, 1-(5-(5-(3-(trifluoromethyl)pyridin-2-ylamino)-1,2,4-thiadiazol-3-yl)-2,3-dihydro-1H-pyrrolo[2,3-c]pyridin-1-yl)ethanone] yielded an IC50 of 200 to 500 nM.

CC(=O)N(C)c1cccnc1Nc1nc(-c2ccc(OC(C)C)cn2)ns1 [Compound 157, N-(2-(3-(5-isopropoxy-pyridin-2-yl)-1,2,4-thiadiazol-5-ylamino)pyridin-3-yl)-N-methyl-acetamide] showed an IC50 of 500 to 5000 nM.

Molecule Cc1cccnc1Nc1nc(-c2ncc(OC3CC3)cc2C(F)(F)F)ns1 [Compound 93, 3-(5-cyclo-propoxy-3-(trifluoromethyl)pyridin-2-yl)-N-(3-methyl-pyridin-2-yl)-1,2,4-thiadiazol-5-amine] has an IC50 of 500 to 5000 nM.

Work on COc1cccnc1Nc1nc(-c2ccc(OC3CC(F)(F)C3)cn2)ns1 [Compound 137, 3-(5-(3,3-difluorocyclo-butoxy)pyridin-2-yl)-N-(3-methoxypyridin-2-yl)-1,2,4-thiadiazol-5-amine] yielded an IC50 of 500 to 5000 nM.

Cc1cccnc1Nc1nc(-c2ccc(OC3CCOCC3)cn2)ns1 [Compound 15, N-(3-methyl-pyridin-2-yl)-3-(5-(tetrahydro-2H-pyran-4-yloxy)pyridin-2-yl)-1,2,4-thiadiazol-5-amine] was tested, and the IC50 was 500 to 5000 nM.

In the case of CC(C)c1cccnc1Nc1nc(-c2ccc(O[C@@H]3CCN(C4CC4)C[C@@H]3F)cn2)ns1 [Compound 89, 3-(5-((3S,4R)-1-cyclopropyl-3-fluoro-piperidin-4-yloxy)pyridin-2-yl)-N-(3-isopropylpyridin-2-yl)-1,2,4-thiadiazol-5-amine], the IC50 is reported as under 200 nM.

CC(=O)N(C)c1ccc(-c2nsc(Nc3ncccc3C)n2)nc1 [Compound 269, N-methyl-N-(6-(5-(3-methylpyridin-2-ylamino)-1,2,4-thiadiazol-3-yl)pyridin-3-yl)acetamide] gave an IC50 of 500 to 5000 nM.

Molecule CC(C)c1cccnc1Nc1nc(-c2ccc(OC3CCN(C4CC4)CC3(F)F)cn2)ns1 (centres unmarked) [Compound 87, 3-(5-(1-cyclo-propyl-3,3-difluoro-piperidin-4-yloxy)pyridin-2-yl)-N-(3-isopropylpyridin-2-yl)-1,2,4-thiadiazol-5-amine] has an IC50 of 200 to 500 nM.

CC(=O)N(c1cccnc1Nc1nc(-c2ccc(OC(C)C)cn2)ns1)C(C)C [Compound 205, N-(2-(3-(5-isopropoxy-pyridin-2-yl)-1,2,4-thiadiazol-5-ylamino)pyridin-3-yl)-N-isopropy-lacetamide] showed an IC50 of 500 to 5000 nM.

For Cc1cccnc1Nc1nc(-c2ccc(OC(C)C)cn2)no1 [Compound 20, 3-(5-isopropoxy-pyridin-2-yl)-N-(3-methyl-pyridin-2-yl)-1,2,4-oxadiazol-5-amine], the IC50 was 500 to 5000 nM.

Cc1ccnc(Nc2nnc(-c3ncccc3C)[nH]2)c1 [Compound 242, 4-methyl-N-(5-(3-methyl-pyridin-2-yl)-4H-1,2,4-triazol-3-yl)pyridin-2-amine] gave an IC50 of 200 to 500 nM.

Molecule O=C1CCCN1c1cccnc1Nc1nc(-c2ccc(NC34CC(C3)C4)cn2)ns1 [Compound 204, 1-(2-(3-(5-(bicyclo [1.1.1]pentan-1-ylamino)pyridin-2-yl)-1,2,4-thiadiazol-5-ylamino)pyridin-3-yl)pyrrolidin-2-one] has an IC50 of 500 to 5000 nM.

With CNc1cccnc1Nc1nc(-c2ccc(OC(C)C)cn2)ns1 [Compound 108, N2-(3-(5-isopropoxypyridin-2-yl)-1,2,4-thiadiazol-5-yl)-N3-methyl-pyridine-2,3-diamine] the IC50 was 200 to 500 nM.

For c1ccc(-c2ccnc(Nc3nc(-c4ccccn4)ns3)c2)cc1 [Compound 237, N-(4-phenyl-pyridin-2-yl)-3-(pyridin-2-yl)-1,2,4-thiadiazol-5-amine], the IC50 was 200 to 500 nM.

In the case of CC(C)Oc1ccc(-c2nsc(Nc3nccnc3N(C)C)n2)nc1 [Compound 144, N2-(3-(5-isoprop-oxypyridin-2-yl)-1,2,4-thiadiazol-5-yl)-N3,N3-dimethyl-pyrazine-2,3-diamine], the IC50 is reported as 200 to 500 nM.

Work on COc1cccnc1-c1nsc(Nc2cc(C(F)(F)F)c(C(C)C)cn2)n1 [Compound 210, N-(5-isopropyl-4-(trifluoromethyl)pyridin-2-yl)-3-(3-methoxy-pyridin-2-yl)-1,2,4-thiadiazol-5-amine] yielded an IC50 of 200 to 500 nM.

CC(=O)N(C)c1cccnc1Nc1nc(-c2ccc(NC34CC(C3)C4)cn2)ns1 [Compound 207, N-(2-(3-(5-(bicyclo [1.1.1]pentan-1-ylamino)pyridin-2-yl)-1,2,4-thiadiazol-5-ylamino)pyridin-3-yl)-N-methylacetamide] showed an IC50 of 500 to 5000 nM.

Work on CN(C)c1cccnc1Nc1nc(-c2ccc(OC3CC3)cn2)ns1 [Compound 78, N2-(3-(5-cyclopropoxy-pyridin-2-yl)-1,2,4-thiadiazol-5-yl)-N3,N3-dimethyl-pyridine-2,3-diamine] yielded an IC50 of 500 to 5000 nM.

Cc1cnc(Nc2nc(-c3cc(C(=O)N(C)C)c(OC(C)C)cn3)ns2)c(C(F)(F)F)c1 [Compound 254, 5-isopropoxy-N,N-dimethyl-2-(5-(5-methyl-3-(trifluoromethyl)pyridin-2-ylamino)-1,2,4-thiadiazol-3-yl)isonico-tinamide] showed an IC50 of 500 to 5000 nM.

COc1cnc(Nc2nc(-c3cc(C(N)=O)c(OC(C)C)cn3)ns2)c(C(F)(F)F)c1 [Compound 253, 5-isopropoxy-2-(5-(5-methoxy-3-(trifluoro-methyl)pyridin-2-ylamino)-1,2,4-thiadiazol-3-yl)isonico-tinamide] gave an IC50 of 500 to 5000 nM.

O=C(NC1CC(F)(F)C1)c1ccc(Nc2nc(-c3ccc(OC4CC4)cn3)ns2)nc1 [Compound 107, 6-(3-(5-cyclo-propoxypyridin-2-yl)-1,2,4-thiadiazol-5-ylamino)-N-(3,3-difluoro-cyclobutyl) nicotinamide] showed an IC50 of 500 to 5000 nM.

Work on COc1ccc(Nc2nc(-c3ccccn3)ns2)nc1 [Cmpd 2, N-(5-methoxy-pyridin-2-yl)-3-(pyridin-2-yl)-1,2,4-thiadiazol-5-amine] yielded an IC50 of 500 to 5000 nM.

Cc1ccnc(-c2noc(Nc3ncccc3F)n2)c1 [Compound 14, N-(3-fluoro-pyridin-2-yl)-3-(4-methylpyridin-2-yl)-1,2,4-oxadiazol-5-amine] showed an IC50 of 500 to 5000 nM.

In the case of c1ccc(-c2ccnc(Nc3nc(-c4ccccn4)no3)c2)cc1 [Compound 246, N-(4-phenyl-pyridin-2-yl)-3-(pyridin-2-yl)-1,2,4-oxadiazol-5-amine], the IC50 is reported as 500 to 5000 nM.

Cc1ccnc(Nc2nc(-c3ncccc3C)ns2)c1 [Compound 238, 3-(3-methyl-pyridin-2-yl)-N-(4-methyl-pyridin-2-yl)-1,2,4-thiadiazol-5-amine] was tested, and the IC50 was 200 to 500 nM.

CC(=O)N(C)c1cccnc1Nc1nc(-c2cc3c(cn2)N(C)CC3)ns1 [Compound 202, N-methyl-N-(2-(3-(1-methyl-2,3-dihydro-1H-pyrrolo[2,3-c]pyridin-5-yl)-1,2,4-thiadiazol-5-ylamino)pyridin-3-yl)acetamide] was tested, and the IC50 was 500 to 5000 nM.

Work on CNc1cccnc1Nc1nc(-c2cc(C)ccn2)ns1 [Compound 23, N3-methyl-N2-(3-(4-methylpyridin-2-yl)-1,2,4-thiadiazol-5-yl) pyridine-2,3-diamine] yielded an IC50 of 200 to 500 nM.

For Cc1cccnc1-c1noc(Nc2ccc(N3CCCC3)cn2)n1 [Compound 42, 3-(3-methyl-pyridin-2-yl)-N-(5-(pyrrolidin-1-yl)pyridin-2-yl)-1,2,4-oxadiazol-5-amine], the IC50 was 500 to 5000 nM.

For CC(C)Oc1cnc(-c2nsc(Nc3ncccc3C(C)C)n2)cc1C#N [Compound 201, 5-isopropoxy-2-(5-(3-isopropyl-pyridin-2-ylamino)-1,2,4-thiadiazol-3-yl)isonicotino-nitrile], the IC50 was under 200 nM.

Work on CC(C)c1cccnc1Nc1nc(-c2ccc(OC3CC3)cn2)ns1 [Compound 74, 3-(5-cyclopropoxy-pyridin-2-yl)-N-(3-isopropylpyridin-2-yl)-1,2,4-thiadiazol-5-amine] yielded an IC50 of under 200 nM.

For Cc1cccnc1Nc1nc(-c2ccc(OC(C)C)cn2)ns1 [Compound 19, 3-(5-isopropoxy-pyridin-2-yl)-N-(3-methyl-pyridin-2-yl)-1,2,4-thiadiazol-5-amine], the IC50 was under 200 nM.

In the case of CC(=O)N(C)c1cccnc1Nc1nc(-c2cc(C(F)F)c(OC(C)C)cn2)ns1 [Compound 261, N-(2-(3-(4-(difluoromethyl)-5-isopropoxy-pyridin-2-yl)-1,2,4-thiadiazol-5-ylamino)pyridin-3-yl)-N-methylacetamide], the IC50 is reported as 200 to 500 nM.

Work on CC(C)Oc1cnc(-c2nsc(Nc3ncc(C(C)C)cc3C(F)(F)F)n2)cc1C(=O)N(C)C [Compound 219, 5-isopropoxy-2-(5-(5-isopropyl-3-(trifluoromethyl)pyridin-2-ylamino)-1,2,4-thiadiazol-3-yl)-N,N-dimethyliso-nicotinamide] yielded an IC50 of 200 to 500 nM.
